From paper PMC10606064, “2-Aminothiazole-Flavonoid Hybrid Derivatives Binding to Tau Protein and Responsible for Antitumor Activity in Glioblastoma” (International Journal of Molecular Sciences, 2023) come the findings set out here.

The test system of test [1] is U87 shCTRL cells. As to the kind of experiment: Microtubule network analysis (alpha-tubulin immunofluorescence), U87 shCTRL. The class given is cell-based, human. Here is the method:
Cells were then fixed in 4% formaldehyde (in PBS pH 7.4) for 20 min at RT, permeabilized with PBS-Triton X-100 0.5% for 10 min at RT. Immunostaining was carried out overnight at 4 °C with a primary anti-citrate synthase antibody (dilution 1:400 in PBS-BSA 3%; SC390693; SantaCruz Biotechnologies, Heidelberg, Germany). The following day, the cells were washed then incubated with anti-mouse secondary antibody (dilution 1:800 in PBS-BSA 3%; A-11029; Invitrogen) and TRITC-phalloidin (dilution 1:2500 in PBS-BSA 3%; P1951; Sigma-Aldrich, Saint-Quentin-Fallavier, France) for 1 h at RT in the dark. For the microtubule network, the same protocol for mitochondria labeling was carried out by replacing with primary anti-α-tubulin antibody (dilution 1:400 in PBS-BSA 1% from a 1 mg/mL solution; monoclonal antibody, clone DM1A, Sigma-Aldrich, Saint-Quentin-Fallavier, France). Next, cells were washed in PBS and cover glasses were mounted with a drop of ProLong® anti-fade solution (Invitrogen). Mitochondria and cytoskeletons were imaged using a confocal laser scanning microscope (CLSM) Leica SP5 with a Leica inverted microscope, equipped with a Plan-Apochromat 63×oil immersion objective (NA = 1.4). Each image was recorded with the CLSM’s spectral mode selecting specific domains of the emission spectrum. The Alexafluor488 and FITC fluorophores were excited at 488 nm with an argon laser, and fluorescence emission was collected between 496 nm and 535 nm. The TRITC fluorophore was excited at 543 nm with a helium–neon laser, and fluorescence was collected between 560 and 620 nm. The public-domain Fiji v1.54f software was used for image analysis.
The analyses of mitochondria and microtubule networks were performed using, respectively, the ‘Mitochondria analyzer’ plugin for Fiji v1.54f software and the method described in our earlier work. Briefly, a series of images were transferred to the software and corrected for background fluorescence intensity contribution. Next, the surface of 50 single cells was measured by considering the cell shape as the boundary of labelling of actin or α-tubulin cytoskeletons (respectively for measurement on mitochondria or microtubules). Then, the mitochondria elongation and mean branch junction per mitochondria parameters, and the surface of the microtubule network, were measured by performing systematically the Otsu method to reduce all gray-level images to binary images. Note that the Otsu plugin in ImageJ is an algorithm which searches for the threshold minimizing the intra-class variance of pixel intensities, defined as a weighted sum of variances of the two classes; the local set is a circular region of interest, and the central pixel is tested against the Otsu threshold found for that region. Moreover, the ratios of microtubules on cell surfaces were calculated as percentages.

Test [2] has as its system U87 shCTRL cells. Description: Mitotic index by high-content imaging, U87 shCTRL. The class given is cell-based, human. As to conditions: 48 h, 5-times IC50 of compounds. Here is the method: For scoring mitotic indexes, an automated high-content screening confocal microscopy approach was employed to identify cells undergoing mitosis from a large population of cells. For this, cells nuclei were stained with DAPI. Briefly, fibronectin-coated clear-glass-bottom black 96-well imaging plates were seeded with 100 µL of cell suspension (60,000 cell.mL^−1) in each well, with both U87 shCTRL and U87 ShTau cell lines. Cells were treated with 5-times IC50 of compounds for 48 h, then they were fixated inside the palates with 4% formaldehyde (in PBS pH 7.4) for 20 min at room temperature, permeabilized with PBS-Triton X-100 0.5% for 10 min at room temperature. DNA was then stained with DAPI (10 µg.mL^−1) for 5 min at room temperature and in the darkness. After being washed, cells were kept in PBS at 4 °C and imaged while in PBS. Automated confocal microscopy was carried out using an Opera Phenix (PerkinElmer) high-content screening microscope using a 20× Air/0.4 NA air objective. For each condition, 6 wells were prepared and a total of 61 fields were acquired for each well. Image analysis was performed using Harmony high-content analysis v4.8 software and PhenoLOGIC Machine Learning technology, which uses a learn-by-example approach. As a first step, nuclei were segmented and multiple parameters for these nuclei were calculated using Harmony v4.8 software building blocks. After training, PhenoLOGIC Machine Learning then selects the best parameters to detect nuclei undergoing the M phase of mitosis. From this, the mitotic index of each condition was calculated by dividing the number of cells undergoing mitosis over the total number of cells.

The target in test [3] is T1, full-length human Tau (hTau40) (Homo sapiens, UniProt P10636).
T1 construct: The full-length human Tau (hTau40) was expressed in a transformed E. coli BL21 (DE3) strain; made in house; host or cells: E. coli BL21 (DE3)
As to the kind of experiment: Tau oligomerization inhibition assay (heparin-induced, thioflavin S fluorescence). The class given is biochemical. As to conditions: 2 µM Tau, heparin-induced, ThS; buffer A pH 6.9; 25 °C per table footnote (37 °C in method); mean ± SD; read-out: Inhibition of Aggregation IC50. As to the method:
Tau oligomerization inhibition assay was performed at 37 °C in 96-well plates by monitoring thioflavin-S fluorescence at 520 nm after excitation at 440 nm using a microplate reader (POLARstar Omega system, BMG Labtech, Paris, France). The Tau oligomerization process was induced by heparin. […] The plates were shaken at 200 rpm for 10 s before each measurement. The real value of fluorescence at the plateau was determined using SciDAVis v1.23 software. Data were fitted to the SciDAVis built-in ExpGrowth equation by means of nonlinear least-squares regression analysis. Y = Y0 + A × exp(x/t)(1)
The unscaled Levenberg–Marquardt algorithm was used, and initial values were given to Y0, A, and t. The final Y0 value of the model corresponds to the plateau value. The plateau values were then used to calculate the Tau oligomerization inhibition percentage. The IC50 for each compound was calculated from the scatter plot of Tau oligomerization inhibition (in percentage) as a function of log10 of compound concentration. The IC50 value (in µM) thus corresponds to ten raised to the power of […].

Setting [4] is: 1.25 µM, 24 h, untreated 39 ± 5%.

T1 sequence (P10636 1-441 isoform P10636-8): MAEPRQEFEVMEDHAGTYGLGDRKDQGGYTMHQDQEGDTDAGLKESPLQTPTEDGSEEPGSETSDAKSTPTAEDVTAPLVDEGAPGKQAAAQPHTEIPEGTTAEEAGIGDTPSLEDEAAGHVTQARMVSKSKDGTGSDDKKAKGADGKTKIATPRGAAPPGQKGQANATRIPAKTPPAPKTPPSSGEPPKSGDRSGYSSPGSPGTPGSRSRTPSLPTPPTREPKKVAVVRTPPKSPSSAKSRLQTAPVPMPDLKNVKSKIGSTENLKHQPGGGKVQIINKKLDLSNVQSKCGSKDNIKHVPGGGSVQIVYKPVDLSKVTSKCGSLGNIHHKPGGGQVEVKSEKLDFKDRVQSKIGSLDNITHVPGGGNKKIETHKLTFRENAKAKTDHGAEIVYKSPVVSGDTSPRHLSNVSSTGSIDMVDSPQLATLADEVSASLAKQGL

For `Nc1nc2ccc3oc(-c4cccc(Oc5ccccc5)c4)cc(=O)c3c2s1` [Compound 2, 2-amino-7-(3-phenoxyphenyl)-9H-chromeno [6,5-d]thiazol-9-one], the “ratio of microtubule network surface to total cell surface” value was determined as 42.2 ± 6.7% in the test on U87 shCTRL cells [1] (setting [4]); 44.1 ± 3.8% in the test on U87 shCTRL cells [1] (5 µM, 8 h (maximal)); 43.2 ± 9.3% with U87 shCTRL cells [1] (20 µM, 24 h, untreated 39 ± 5%). The mitotic index entry in the test on U87 shCTRL cells [2] is on record as “no significant variation of mitotic indexes”. For the same molecule, the half-maximal inhibitory concentration (IC50) (usually the concentration that inhibits the measured activity by half) in test [3] was 31.7 ± 7.3 µM.

Turning to `Nc1nc2ccc3oc(C(=O)O)cc(=O)c3c2s1` [Compound 5], the “ratio of microtubule network surface to total cell surface” value in the test on U87 shCTRL cells [1] (setting [4]) was “no effect”; with U87 shCTRL cells [1] (5 µM, 8 h (maximal)), “no effect on microtubule networks”; with U87 shCTRL cells [1] (20 µM, 24 h, untreated 39 ± 5%), “no effect”. In the test on U87 shCTRL cells [2], the mitotic index is 2.47 ± 0.19%. Also, in test [3], the 50% inhibitory concentration (IC50) was > 100 µM.
